Results published in patent publication US20260035387A1 (BIOGEN MA INC., priority 2022, published 2026).

These compounds were tested on mutant Huntington (HTT) protein (assay: HTT Mutant HTRF iPSC assay (mHTT protein lowering)). Settings: human iPSC derived from a HTT patient with a poly-Q49 mutation.
Assay type: cell-based

Q: How did the IC50 turn out when `Cc1cn2cc(NC(=O)c3cc4ccc(N5CC6(CCCN(C)C6)C5)nc4s3)cc(F)c2n1` [Compound 76, N-(8-fluoro-2-methylimidazo[1,2-a]pyridin-6-yl)-6-(6-methyl-2,6-diazaspiro[3.5]nonan-2-yl)thieno[2,3-b]pyridine-2-carboxamide] was run?
A: 100 to 1000 nM

Q: With `Cc1cn2cc(NC(=O)c3cc4ccc(N5CCN(C)CC5)nc4s3)cc(F)c2n1` [Compound 77, N-(8-fluoro-2-methylimidazo[1,2-a]pyridin-6-yl)-6-(4-methylpiperazin-1-yl)thieno[2,3-b]pyridine-2-carboxamide] as the compound, how does the IC50 read?
A: < 100 nM

Q: Which IC50 does the source give for `Cc1cn2cc(NC(=O)c3cc4ccc(N5CCC(C6(N)CC6)C5)nc4s3)cc(F)c2n1` (stereo not shown) [Compound 78, 6-(3-(1-aminocyclopropyl)pyrrolidin-1-yl)-N-(8-fluoro-2-methylimidazo[1,2-a]pyridin-6-yl)thieno[2,3-b]pyridine-2-carboxamide] here?
A: < 100 nM

Q: `Cc1cn2cc(NC(=O)c3cc4ccc(N5CCN(C6CC6)CC5)nc4s3)cc(F)c2n1` [Compound 79, 6-(4-cyclopropylpiperazin-1-yl)-N-(8-fluoro-2-methylimidazo[1,2-a]pyridin-6-yl)thieno[2,3-b]pyridine-2-carboxamide] was tested. Which IC50 did it give?
A: < 100 nM

Q: For `Cc1cn2cc(NC(=O)c3cc4ccc(N5C[C@H]6CNC[C@H]6C5)nc4s3)cc(F)c2n1` [Compound 80, N-(8-fluoro-2-methylimidazo[1,2-a]pyridin-6-yl)-6-((3aR,6aS)-hexahydropyrrolo[3,4-c]pyrrol-2(1H)-yl)thieno[2,3-b]pyridine-2-carboxamide], which IC50 is on record?
A: 100 to 1000 nM

Q: How did the IC50 turn out when `Cc1cn2cc(NC(=O)c3cc4ccc(C5=CC6CCC(C5)N6)nc4s3)cc(F)c2n1` (stereo not shown) [Compound 83, 6-(8-azabicyclo[3.2.1]oct-2-en-3-yl)-N-(8-fluoro-2-methylimidazo[1,2-a]pyridin-6-yl)thieno[2,3-b]pyridine-2-carboxamide] was run?
A: < 100 nM

Q: Which IC50 does the source give for `Cc1cn2cc(NC(=O)c3cc4ccc(C5=CCCNC5)nc4s3)cc(F)c2n1` [Compound 84, N-(8-fluoro-2-methyl-imidazo[1,2-a]pyridin-6-yl)-6-(1,2,3,6-tetrahydropyridin-5-yl)thieno[2,3-b]pyridine-2-carboxamide] here?
A: < 100 nM

Q: With `Cc1cn2cc(NC(=O)c3cc4ccc(C5CCNCC5)nc4s3)cc(F)c2n1` [Compound 85, N-(8-fluoro-2-methylimidazo[1,2-a]pyridin-6-yl)-6-(piperidin-4-yl)thieno[2,3-b]pyridine-2-carboxamide] as the compound, how does the IC50 read?
A: < 100 nM

Q: Which IC50 does the source give for `Cc1cn2cc(NC(=O)c3cc4ncc(N5CCC(N(C)C)C5)cc4o3)cc(F)c2n1` (stereo not shown) [Compound 86, 6-[3-(dimethylamino)pyrrolidin-1-yl]-N-(8-fluoro-2-methyl-imidazo[1,2-a]pyridin-6-yl)furo[3,2-b]pyridine-2-carboxamide] here?
A: 100 to 1000 nM

Q: Which IC50 does the source give for `COc1cc2nn(C)cc2cc1NC(=O)c1nc2ccc(N3CCC4(CCCN4C)C3)nc2s1` (stereo not shown) [Compound 87, N-(6-methoxy-2-methyl-2H-indazol-5-yl)-5-(1-methyl-1,7-diazaspiro[4.4]nonan-7-yl)thiazolo[5,4-b]pyridine-2-carboxamide] here?
A: < 100 nM

Q: For `COc1cc2nn(C)cc2cc1NC(=O)c1nc2ccc(N3CCC4(CN(C)C4)C3)nc2s1` [Compound 88, N-(6-methoxy-2-methyl-2H-indazol-5-yl)-5-(2-methyl-2,6-diazaspiro[3.4]octan-6-yl)thiazolo[5,4-b]pyridine-2-carboxamide], which IC50 is on record?
A: < 100 nM

Q: How did the IC50 turn out when `Cc1cn2cc(NC(=O)c3nc4ccc(N5CC[C@@H](N(C)C)C5)nc4s3)cc(F)c2n1` [Compound 89, 5-[(3R)-3-(dimethylamino)pyrrolidin-1-yl]-N-(8-fluoro-2-methyl-imidazo[1,2-a]pyridin-6-yl)thiazolo[5,4-b]pyridine-2-carboxamide] was run?
A: < 100 nM

Q: How did the IC50 turn out when `COc1cc2nn(C)cc2cc1NC(=O)c1nc2ccc(N3C[C@@H]4CN(C)C[C@@H]43)nc2s1` [Compound 90, N-(6-methoxy-2-methyl-2H-indazol-5-yl)-5-((1S,5R)-3-methyl-3,6-diazabicyclo[3.2.0]heptan-6-yl)thiazolo[5,4-b]pyridine-2-carboxamide] was run?
A: < 100 nM

Q: `COc1c(NC(=O)c2nc3ccc(N4CC[C@H](N(C)C)C4)nc3s2)cn2cc(C)nc2c1F` [Compound 91, (S)-5-(3-(dimethylamino)pyrrolidin-1-yl)-N-(8-fluoro-7-methoxy-2-methylimidazo[1,2-a]pyridin-6-yl)thiazolo[5,4-b]pyridine-2-carboxamide] was tested. Which IC50 did it give?
A: < 100 nM

Q: `Cc1cn2cc(NC(=O)c3nc4ccc(N5CC[C@H](N(C)C)C5)nc4s3)cc(F)c2n1` [Compound 93, (S)-5-(3-(dimethylamino)pyrrolidin-1-yl)-N-(8-fluoro-2-methylimidazo[1,2-a]pyridin-6-yl)thiazolo[5,4-b]pyridine-2-carboxamide] was tested. Which IC50 did it give?
A: < 100 nM

Q: `COc1cc(NC(=O)c2nc3ccc(N4CCC5(CCCN5C)C4)nc3s2)cn2cc(C)nc12` (stereo not shown) [Compound 95, N-(8-methoxy-2-methylimidazo[1,2-a]pyridin-6-yl)-5-(1-methyl-1,7-diazaspiro[4.4]nonan-7-yl)thiazolo[5,4-b]pyridine-2-carboxamide] was tested. Which IC50 did it give?
A: < 100 nM

Q: Which IC50 does the source give for `CCN1CCN(c2ccc3nc(C(=O)Nc4cn5cc(C)nc5c(OC)n4)sc3n2)CC1` [Compound 96, 5-(4-ethylpiperazin-1-yl)-N-(8-methoxy-2-methylimidazo[1,2-a]pyrazin-6-yl)thiazolo[5,4-b]pyridine-2-carboxamide] here?
A: < 100 nM

Q: Which IC50 does the source give for `Cc1cn2cc(NC(=O)c3nc4ccc(N5CCC6(CCCN6C)C5)nc4s3)cc(F)c2n1` (stereo not shown) [Compound 98, N-(8-fluoro-2-methylimidazo[1,2-a]pyridin-6-yl)-5-(1-methyl-1,7-diazaspiro[4.4]nonan-7-yl)thiazolo[5,4-b]pyridine-2-carboxamide] here?
A: < 100 nM

Q: `Cc1cn2cc(NC(=O)c3nc4ccc(N5CCC(N6CCC6)C5)nc4s3)cc(F)c2n1` (stereo not shown) [Compound 99, 5-(3-(azetidin-1-yl)pyrrolidin-1-yl)-N-(8-fluoro-2-methylimidazo[1,2-a]pyridin-6-yl)thiazolo[5,4-b]pyridine-2-carboxamide] was tested. Which IC50 did it give?
A: < 100 nM

Q: How did the IC50 turn out when `COc1nc(NC(=O)c2nc3ccc(N4CCC(N(C)C)C4)nc3s2)cn2cc(C)nc12` (stereo not shown) [Compound 100, 5-(3-(dimethylamino)pyrrolidin-1-yl)-N-(8-methoxy-2-methylimidazo[1,2-a]pyrazin-6-yl)thiazolo[5,4-b]pyridine-2-carboxamide] was run?
A: < 100 nM

Q: `Cc1cn2cc(NC(=O)c3nc4ccc(N5CCNCC5)nc4s3)cc(F)c2n1` [Compound 102, N-(8-fluoro-2-methylimidazo[1,2-a]pyridin-6-yl)-5-(piperazin-1-yl)thiazolo[5,4-b]pyridine-2-carboxamide] was tested. Which IC50 did it give?
A: < 100 nM

Q: How did the IC50 turn out when `Cc1cn2cc(NC(=O)c3nc4ccc(NC5CC(C)(C)NC(C)(C)C5)nc4s3)cc(F)c2n1` [Compound 103, N-(8-fluoro-2-methylimidazo[1,2-a]pyridin-6-yl)-5-((2,2,6,6-tetramethylpiperidin-4-yl)amino)thiazolo[5,4-b]pyridine-2-carboxamide] was run?
A: < 100 nM

Q: `Cc1cn2cc(NC(=O)c3nc4ccc(N5C[C@H]6CN(C)C[C@H]65)nc4s3)cc(F)c2n1` [Compound 104, N-(8-fluoro-2-methylimidazo[1,2-a]pyridin-6-yl)-5-((1R,5S)-3-methyl-3,6-diazabicyclo[3.2.0]heptan-6-yl)thiazolo[5,4-b]pyridine-2-carboxamide] was tested. Which IC50 did it give?
A: < 100 nM

Q: Which IC50 does the source give for `Cc1cn2cc(NC(=O)c3nc4ccc(N5C[C@@H]6CCN[C@@H]6C5)nc4s3)cc(F)c2n1` [Compound 105, N-(8-fluoro-2-methylimidazo[1,2-a]pyridin-6-yl)-5-((3aS,6aS)-hexahydropyrrolo[3,4-b]pyrrol-5(1H)-yl)thiazolo[5,4-b]pyridine-2-carboxamide] here?
A: < 100 nM

Q: How did the IC50 turn out when `Cc1cn2cc(NC(=O)c3nc4ccc(N5C[C@@H]6CN(C)C[C@@H]65)nc4s3)cc(F)c2n1` [Compound 106, N-(8-fluoro-2-methylimidazo[1,2-a]pyridin-6-yl)-5-((1S,5R)-3-methyl-3,6-diazabicyclo[3.2.0]heptan-6-yl)thiazolo[5,4-b]pyridine-2-carboxamide] was run?
A: 100 to 1000 nM

Q: `CN[C@H]1CCN(c2ccc3nc(C(=O)Nc4cc(F)c5nc(C)cn5c4)sc3n2)C1` [Compound 107, (S)-N-(8-fluoro-2-methylimidazo[1,2-a]pyridin-6-yl)-5-(3-(methylamino)pyrrolidin-1-yl)thiazolo[5,4-b]pyridine-2-carboxamide] was tested. Which IC50 did it give?
A: < 100 nM

Q: For `Cc1cn2cc(NC(=O)c3nc4ccc(N5C[C@H]6CCN[C@H]6C5)nc4s3)cc(F)c2n1` [Compound 108, N-(8-fluoro-2-methylimidazo[1,2-a]pyridin-6-yl)-5-((3aR,6aR)-hexahydropyrrolo[3,4-b]pyrrol-5(1H)-yl)thiazolo[5,4-b]pyridine-2-carboxamide], which IC50 is on record?
A: < 100 nM

Q: How did the IC50 turn out when `COc1nc(NC(=O)c2nc3ccc(N4CCC5(CCCN5C)C4)nc3s2)cn2cc(C)nc12` (stereo not shown) [Compound 109, N-(8-methoxy-2-methylimidazo[1,2-a]pyrazin-6-yl)-5-(1-methyl-1,7-diazaspiro[4.4]nonan-7-yl)thiazolo[5,4-b]pyridine-2-carboxamide] was run?
A: < 100 nM

Q: `Cc1cn2cc(NC(=O)c3nc4ccc(N5C[C@@H]6CCN[C@@H]6C5)nc4s3)cc(F)c2n1` [Compound 110, N-(8-fluoro-2-methylimidazo[1,2-a]pyridin-6-yl)-5-((3aS,6aS)-hexahydropyrrolo[3,4-b]pyrrol-5(1H)-yl)thiazolo[5,4-b]pyridine-2-carboxamide] was tested. Which IC50 did it give?
A: < 100 nM

Q: How did the IC50 turn out when `Cc1cn2cc(NC(=O)c3nc4ccc(N5CCC6(CCN6)C5)nc4s3)cc(F)c2n1` (stereo not shown) [Compound 112, N-(8-fluoro-2-methylimidazo[1,2-a]pyridin-6-yl)-5-(1,6-diazaspiro[3.4]octan-6-yl)thiazolo[5,4-b]pyridine-2-carboxamide] was run?
A: < 100 nM

Q: For `Cc1cn2cc(NC(=O)c3nc4ccc(N(C)C5CC(C)(C)NC(C)(C)C5)nc4s3)cc(F)c2n1` [Compound 113, N-(8-fluoro-2-methylimidazo[1,2-a]pyridin-6-yl)-5-(methyl(2,2,6,6-tetramethylpiperidin-4-yl)amino)thiazolo[5,4-b]pyridine-2-carboxamide], which IC50 is on record?
A: < 100 nM
